Test results taken from ChEMBL document CHEMBL1151551, “An acid-cleavable linker stable at neutral pH that releases doxorubicin at lysosomal pH” (Bioorg Med Chem Lett, 1993).

How the values were obtained:
Mus musculus [1] = organism: Mus musculus; assay: The compound was evaluated for half life (release of DOX) […] at 37 degree Celsius at the pH 7.; assay type: ADME
Mus musculus [2] = organism: Mus musculus; assay: The compound was evaluated for half life (release of DOX) […] at 37 degree Celsius at the pH 5.; assay type: ADME

T1/2 (Mus musculus [1]) | T1/2 (Mus musculus [2]) | SMILES
> 100 days | 40 h | COC(=O)C1(C)CC(C)(C(=O)O)CC(C)(C(=O)NC2CC(O[C@H]3C[C@](O)(C(=O)CO)Cc4c(O)c5c(c(O)c43)C(=O)c3c(OC)cccc3C5=O)OC(C)C2O)C1 (some centres not stated)
– | 30 h | COc1cccc2c1C(=O)c1c(O)c3c(c(O)c1C2=O)C[C@@](O)(C(=O)CO)C[C@@H]3OC1CC(NC(=O)C2(C)CC(C)(C(=O)O)CC(C)(C(=O)O)C2)C(O)C(C)O1 (some centres not stated)
> 174 days | > 174 h | CCCCN(C)C(=O)C1(C)CC(C)(C(=O)O)CC(C)(C(=O)N(C(=O)C(F)(F)F)C2CC(O[C@H]3C[C@](O)(C(=O)CO)Cc4c(O)c5c(c(O)c43)C(=O)c3c(OC)cccc3C5=O)OC(C)C2O)C1 (some centres not stated)
> 160 days | 90 h | CCCCNC(=O)C1(C)CC(C)(C(=O)O)CC(C)(C(=O)NC2CC(O[C@H]3C[C@](O)(C(=O)CO)Cc4c(O)c5c(c(O)c43)C(=O)c3c(OC)cccc3C5=O)OC(C)C2O)C1 (some centres not stated)
